Data published in ChEMBL document CHEMBL5303573, “Mapping human microbiome drug metabolism by gut bacteria and their genes” (Nature, 2019).

How the values were obtained:
[1] = The drug is tested on Blautia hansenii strain: DSM20583 for biotransformation. The drug concentrations were measured before and after a 12-h incubation by liquid-chromatography-coupled mass spectrometry (LC–MS); conditions: 2 µM
[2] = The drug is tested on Bacteroides cellulosilyticus strain: DSM14838 for biotransformation. The drug concentrations were measured before and after a 12-h incubation by liquid-chromatography-coupled mass spectrometry (LC–MS); conditions: 2 µM
[3] = The drug is tested on Enterococcus faecalis strain: V583 for biotransformation. The drug concentrations were measured before and after a 12-h incubation by liquid-chromatography-coupled mass spectrometry (LC–MS); conditions: 2 µM
[4] = The drug is tested on Parabacteroides merdae strain: ATCC43184 for biotransformation. The drug concentrations were measured before and after a 12-h incubation by liquid-chromatography-coupled mass spectrometry (LC–MS); conditions: 2 µM
[5] = The drug is tested on Bacteroides fragilis strain: HMW615 for biotransformation. The drug concentrations were measured before and after a 12-h incubation by liquid-chromatography-coupled mass spectrometry (LC–MS); conditions: 2 µM
[6] = The drug is tested on Bifidobacterium longum subsp. Infantis strain: CCUG52486 for biotransformation. The drug concentrations were measured before and after a 12-h incubation by liquid-chromatography-coupled mass spectrometry (LC–MS); conditions: 2 µM
[7] = anaerostipes sp., 12 h, 2 µM
Description: The drug is tested on Anaerostipes sp. strain: fecal isolate for biotransformation. The drug concentrations were measured before and after a 12-h incubation by liquid-chromatography-coupled mass spectrometry (LC–MS)

[8] = The drug is tested on Collinsella aerofaciens strain: ATCC25986 for biotransformation. The drug concentrations were measured before and after a 12-h incubation by liquid-chromatography-coupled mass spectrometry (LC–MS); conditions: 2 µM
[9] = The drug is tested on Bacteroides dorei strain: DSM17855 for biotransformation. The drug concentrations were measured before and after a 12-h incubation by liquid-chromatography-coupled mass spectrometry (LC–MS); conditions: phocaeicola dorei, 2 µM
[10] = The drug is tested on Collinsella intestinalis strain: DSM13280 for biotransformation. The drug concentrations were measured before and after a 12-h incubation by liquid-chromatography-coupled mass spectrometry (LC–MS); conditions: 2 µM
[11] = The drug is tested on Bacteroides xylanisolvens strain: DSM18836 for biotransformation. The drug concentrations were measured before and after a 12-h incubation by liquid-chromatography-coupled mass spectrometry (LC–MS); conditions: 2 µM
[12] = The drug is tested on Clostridium scindens strain: ATCC35704 for biotransformation. The drug concentrations were measured before and after a 12-h incubation by liquid-chromatography-coupled mass spectrometry (LC–MS); conditions: 2 µM
[13] = The drug is tested on Blautia luti strain: DSM14534 for biotransformation. The drug concentrations were measured before and after a 12-h incubation by liquid-chromatography-coupled mass spectrometry (LC–MS); assay type: ADME; set-up: dose 2 uM, timepoint 0 vs 12 hours; conditions: 2 µM
[14] = The drug is tested on Bifidobacterium breve strain: DSM20213 for biotransformation. The drug concentrations were measured before and after a 12-h incubation by liquid-chromatography-coupled mass spectrometry (LC–MS); conditions: 2 µM
[15] = The drug is tested on Bifidobacterium ruminantium strain: fecal isolate for biotransformation. The drug concentrations were measured before and after a 12-h incubation by liquid-chromatography-coupled mass spectrometry (LC–MS); conditions: 2 µM
[16] = The drug is tested on Bacteroides uniformis strain: ATCC8492 for biotransformation. The drug concentrations were measured before and after a 12-h incubation by liquid-chromatography-coupled mass spectrometry (LC–MS); conditions: 2 µM
[17] = The drug is tested on Anaerotruncus colihominis strain: DSM17241 for biotransformation. The drug concentrations were measured before and after a 12-h incubation by liquid-chromatography-coupled mass spectrometry (LC–MS); conditions: 2 µM
[18] = bacteroides thetaiotaomicron, 12 h, 2 µM
Description: The drug is tested on Bacteroides thetaiotaomicron strain: VPI-5482 for biotransformation. The drug concentrations were measured before and after a 12-h incubation by liquid-chromatography-coupled mass spectrometry (LC–MS)

[19] = The drug is tested on Providencia stuartii strain: ATCC25827 for biotransformation. The drug concentrations were measured before and after a 12-h incubation by liquid-chromatography-coupled mass spectrometry (LC–MS); conditions: 2 µM
[20] = The drug is tested on Eubacterium rectale strain: ATCC33656 for biotransformation. The drug concentrations were measured before and after a 12-h incubation by liquid-chromatography-coupled mass spectrometry (LC–MS); conditions: agathobacter rectalis, 2 µM

Bacterial Biotransformation [1] | Bacterial Biotransformation [2] | Bacterial Biotransformation [3] | Bacterial Biotransformation [4] | Bacterial Biotransformation [5] | Bacterial Biotransformation [6] | Bacterial Biotransformation [7] | Bacterial Biotransformation [8] | Bacterial Biotransformation [9] | Bacterial Biotransformation [10] | Bacterial Biotransformation [11] | Bacterial Biotransformation [12] | Bacterial Biotransformation [13] | Bacterial Biotransformation [14] | Bacterial Biotransformation [15] | Bacterial Biotransformation [16] | Bacterial Biotransformation [17] | Bacterial Biotransformation [18] | Bacterial Biotransformation [19] | Bacterial Biotransformation [20] | Structure (SMILES)
Compound metabolized | Compound metabolized | Compound NOT metabolized | Compound NOT metabolized | Compound metabolized | Compound NOT metabolized | Compound NOT metabolized | Compound metabolized | Compound metabolized | Compound NOT metabolized | Compound metabolized | Compound metabolized | Compound NOT metabolized | Compound NOT metabolized | Compound NOT metabolized | Compound metabolized | Compound metabolized | – | – | – | CC(=O)O[C@]1(C(C)=O)CC[C@H]2[C@@H]3C=C(Cl)C4=CC(=O)[C@@H]5C[C@@H]5[C@]4(C)[C@H]3CC[C@@]21C [CYPROTERONE ACETATE]
Compound metabolized | Compound NOT metabolized | Compound NOT metabolized | Compound metabolized | Compound metabolized | Compound NOT metabolized | Compound NOT metabolized | Compound NOT metabolized | Compound metabolized | Compound NOT metabolized | Compound metabolized | Compound NOT metabolized | Compound NOT metabolized | Compound NOT metabolized | – | Compound metabolized | Compound NOT metabolized | Compound metabolized | Compound NOT metabolized | – | C[C@H]1O[C@@H](O[C@H]2[C@@H](O)C[C@H](O[C@H]3[C@@H](O)C[C@H](O[C@H]4CC[C@@]5(C)[C@H](CC[C@@H]6[C@@H]5C[C@@H](O)[C@]5(C)[C@@H](C7=CC(=O)OC7)CC[C@]65O)C4)O[C@@H]3C)O[C@@H]2C)C[C@H](O)[C@@H]1O [DIGOXIN]
Compound NOT metabolized | Compound metabolized | – | Compound metabolized | Compound metabolized | Compound metabolized | Compound NOT metabolized | Compound NOT metabolized | Compound metabolized | Compound NOT metabolized | Compound metabolized | Compound NOT metabolized | Compound NOT metabolized | Compound NOT metabolized | – | Compound metabolized | Compound NOT metabolized | Compound metabolized | Compound NOT metabolized | Compound NOT metabolized | CC(=O)OCC(CCn1cnc2cnc(N)nc21)COC(C)=O [FAMCICLOVIR]
Compound NOT metabolized | Compound NOT metabolized | Compound NOT metabolized | Compound NOT metabolized | Compound NOT metabolized | Compound NOT metabolized | Compound NOT metabolized | Compound NOT metabolized | Compound NOT metabolized | Compound NOT metabolized | Compound NOT metabolized | – | Compound NOT metabolized | Compound NOT metabolized | – | Compound NOT metabolized | – | Compound NOT metabolized | Compound NOT metabolized | Compound NOT metabolized | CC(CCc1ccccc1)NCC(O)c1ccc(O)c(C(N)=O)c1 (centres undefined) [LABETALOL]
Compound NOT metabolized | Compound NOT metabolized | Compound NOT metabolized | – | Compound metabolized | Compound NOT metabolized | Compound NOT metabolized | Compound NOT metabolized | Compound NOT metabolized | Compound NOT metabolized | Compound NOT metabolized | Compound NOT metabolized | Compound NOT metabolized | Compound NOT metabolized | – | Compound NOT metabolized | Compound NOT metabolized | Compound NOT metabolized | Compound NOT metabolized | Compound NOT metabolized | COc1ccc2cc([C@H](C)C(=O)O)ccc2c1 [NAPROXEN]
Compound NOT metabolized | Compound metabolized | Compound NOT metabolized | Compound NOT metabolized | Compound NOT metabolized | Compound NOT metabolized | Compound metabolized | Compound NOT metabolized | – | Compound NOT metabolized | Compound NOT metabolized | Compound NOT metabolized | Compound NOT metabolized | Compound NOT metabolized | Compound NOT metabolized | Compound NOT metabolized | Compound metabolized | Compound NOT metabolized | Compound NOT metabolized | – | Fc1ccc([C@@H]2CCNC[C@H]2COc2ccc3c(c2)OCO3)cc1 [PAROXETINE]

Structure (SMILES) | Bacterial Biotransformation [1] | Bacterial Biotransformation [2] | Bacterial Biotransformation [3] | Bacterial Biotransformation [4] | Bacterial Biotransformation [5] | Bacterial Biotransformation [6] | Bacterial Biotransformation [7] | Bacterial Biotransformation [8] | Bacterial Biotransformation [9] | Bacterial Biotransformation [10] | Bacterial Biotransformation [11] | Bacterial Biotransformation [12] | Bacterial Biotransformation [13] | Bacterial Biotransformation [14] | Bacterial Biotransformation [15] | Bacterial Biotransformation [16] | Bacterial Biotransformation [17] | Bacterial Biotransformation [18] | Bacterial Biotransformation [19] | Bacterial Biotransformation [20]
COc1ccc2c3c1O[C@H]1C[C@@H](O)C=C[C@@]31CCN(C)C2 [GALANTAMINE] | Compound NOT metabolized | Compound NOT metabolized | Compound metabolized | Compound NOT metabolized | Compound metabolized | – | Compound metabolized | Compound NOT metabolized | Compound NOT metabolized | Compound NOT metabolized | Compound metabolized | Compound NOT metabolized | Compound NOT metabolized | Compound NOT metabolized | Compound NOT metabolized | Compound metabolized | Compound NOT metabolized | Compound metabolized | – | –
CN1CCN(C2=Nc3ccccc3Oc3ccc(Cl)cc32)CC1.O=C(O)CCC(=O)O [LOXAPINE SUCCINATE] | Compound NOT metabolized | Compound NOT metabolized | Compound NOT metabolized | Compound NOT metabolized | Compound NOT metabolized | Compound NOT metabolized | Compound NOT metabolized | – | Compound NOT metabolized | Compound NOT metabolized | Compound NOT metabolized | – | Compound NOT metabolized | Compound NOT metabolized | – | Compound NOT metabolized | Compound NOT metabolized | Compound NOT metabolized | – | Compound NOT metabolized
